Assays:
[1] = untreated DPPH level designated 100%; cited from earlier work
[2] = system: NIH3T3 (mouse embryonic fibroblast); experiment: Basal cytotoxicity test, Neutral Red Uptake (NRU) assay; conditions: Mus musculus, NIH3T3, 24 h, read-out: NIH3T3 IC50 (NR)
Protocol: The NRU cytotoxicity assay procedure is based on the ability of viable cells to incorporate and bind neutral red, a supravital dye.
Balb/c NIH 3T3 (mouse Swiss albino embryo fibroblast, ATCC® CRL-1658™) cells (9000 cells/well) were placed into 96-well plates for 24 h in Dulbecco's modified Eagle's medium (DMEM) containing 5% fetal bovine serum. Then, the cells were exposed to the test compound over a range of seven concentrations (1000, 316, 100, 31, 10, 3, and 1 μg/ml) for 24 h. Untreated cells were used as a control. After 24 h, the medium was removed from all plates. Then, 150 μl of neutral red solution was added (0.05 mg/ml NR in DMEM 24 h preincubated at 37°C and then filtered before use through a 0.22 μm syringe filter). Plates were incubated for 3 h, and then, the cells were washed three times with PBS. The dye within viable cells was released by extraction with a mixture of acetic acid, ethanol, and water (1 : 50 : 49). The absorbance of neutral red was measured using a spectrophotometer multiplate reader (Tecan Infinite M1000) at 540 nm. The optical density (OD) was calculated using the following formula: OD (treated cells) × 100/OD (control cells). The IC50 values were calculated using the GraphPad Prism® 3.0 program.

MH-22A (mouse hepatoma) [3] = experiment: Cytotoxicity, MTT assay, MH-22A; assay type: cell-based; conditions: Mus musculus; Table 1; 72 h exposure; read-out: MH-22A IC50 (MTT)
From the text: (§1) Reduction takes place only when mitochondrial reductase enzymes are active, and therefore, conversion is directly related to the number of viable cells which can be quantified by the absorbance of the solution (between λ = 500 and 600 nm) using a spectrophotometer.

[4] = system: HT-1080 (human lung fibrosarcoma); experiment: Cytotoxicity, crystal violet (CV) assay, HT-1080; conditions: Homo sapiens, HT-1080, 72 h, read-out: HT-1080 IC50 (CV)
Protocol: IC50 is the compound concentration (μg/ml) at which 50% of the cells die. […] CV staining can be used to quantify the total DNA of the remaining population and thus is used to determine the number of live cells based on the concentration of the dye which remains after staining.
Tumor cell lines HT-1080 (human connective tissue fibrosarcoma, ATCC® CCL-121™) and MH-22A (mouse hepatocarcinoma, ECACC, cat. Nr. 96121721) were used.
HT-1080 and MH-22A cells were seeded in 96-well plates in Dulbecco's modified Eagle's (DMEM) medium containing 10% fetal bovine serum and 4 mM L-glutamine, without antibiotics, and cultivated for 72 h by exposure to different concentrations of compounds. Cell viability was measured using 3-(4,5-dimethylthiazol-2-yl)-2,5-diphenyltetrazolinium bromide (MTT). In brief, after incubating with compounds, the culture medium was removed and fresh medium with 0.2 mg/ml MTT was added in each well of the plate. After incubation (3 h, 37°C, 5% CO2), the medium with MTT was removed, and 200 μl DMSO was added at once to each sample. The samples were tested at 540 nm on a Tecan Infinite M1000 multiplate reader. The IC50 was calculated using the program GraphPad Prism® 3.0.
For the CV assay, cells were stained with 0.05% crystal violet (Sigma-Aldrich) in 30% methanol for 20 minutes at room temperature. After incubation, the staining solution was removed. The cells were washed 4 times with water. For dye solubilization, 200 μl of a solubilizing solution (0.1 M citrate buffer, pH 4.2 in 50% ethanol; 1 : 1 v/v) was added. The absorbance of the solution was measured using a Tecan Infinite M1000 multiplate spectrophotometer at a wavelength of 570 nm [21].

[5] = system: HT-1080 (human lung fibrosarcoma); experiment: Cytotoxicity, MTT assay, HT-1080; assay type: cell-based; conditions: Homo sapiens, HT-1080; Table 1; 72 h exposure; read-out: HT-1080 IC50 (MTT)
From the text: as §1

MH-22A (mouse hepatoma) [6] = experiment: Cytotoxicity, crystal violet (CV) assay, MH-22A; assay type: cell-based; conditions: Mus musculus; Table 1; 72 h exposure; read-out: MH-22A IC50 (CV)
Protocol: After incubation, the staining solution was removed. The cells were washed 4 times with water.

NIH3T3 = experiment: in vitro; conditions: mouse
[7] = Electrochemical oxidation potentials, cyclic voltammetry; assay type: physicochemical; conditions: glassy carbon electrode, dry acetonitrile
Protocol: A stationary glassy carbon disk electrode (d = 0.5 mm) served as the working electrode, while the counterelectrode was a Pt wire. The oxidation potentials were measured relative to a Ag/Ag^+ reference electrode. Acetonitrile was dried over P2O5 and distilled; the distillate was stored over CaH2 and redistilled just before use. Recrystallized tetrabutylammonium tetrafluoroborate (TBABF4) was used as a supporting electrolyte at 0.1 M concentration.
The electrochemical oxidation of the selected compounds studied in this work was performed by cyclic voltammetry on a stationary glassy carbon electrode in dry acetonitrile; the data is presented in Table 4. The perchlorates of the tested amphiphiles were obtained from the corresponding bromides by treating their abs. MeOH solutions with excess of conc. HClO4 according to the procedure elaborated by Turovska et al..

[8] = previous results; cited from earlier work

SMILES	antiradical activity (ARA), DPPH free radical scavenging [1]	IC50 [2]	IC50 (MH-22A (mouse hepatoma) [3])	IC50 [4]	IC50 [5]	IC50 (MH-22A (mouse hepatoma) [6])	LD50 (calculated, NIH3T3) (NIH3T3)	Oxidation potential E^ox ([7]; Table 4, vs Ag/Ag+, 0.1 M TBABF4, tested as perchlorates)	electrooxidation potential ([7]; cyclic voltammetry)	electrochemical oxidation potential [8]
CCCCCCCCCCCCOC(=O)C1=C(C[n+]2ccc(N(C)C)cc2)NC(C[n+]2ccc(N(C)C)cc2)=C(C(=O)OCCCCCCCCCCCC)C1c1ccccc1.[Br-].[Br-] [compound 13, 1,1'-((3,5-Bis((dodecyloxy)carbonyl)-4-phenyl-1,4-dihydropyridine-2,6-diyl)bis(methylene))bis(4-(dimethylamino)pyridin-1-ium) dibromide]	27%	119 ± 13 µg/mL	10 ± 3 µg/mL	10 ± 1 µg/mL	3 ± 0.6 µg/mL	6 ± 2 µg/mL				
CCOC(=O)C1=C(C[n+]2ccccc2)NC(C[n+]2ccccc2)=C(C(=O)OCC)C1c1ccccc1.[Br-].[Br-] [compound 1, 1,1'-((3,5-Bis(ethoxycarbonyl)-4-phenyl-1,4-dihydropyridine-2,6-diyl)bis(methylene))-bis(pyridin-1-ium) dibromide]		> 1000 µg/mL	> 100 µg/mL	> 100 µg/mL	> 100 µg/mL	> 100 µg/mL	> 2000 mg/kg	1.57 V	1.57–1.58 V	1.7 V

Reference: article PMC7790557, “Pleiotropic Properties of Amphiphilic Dihydropyridines, Dihydropyridones, and Aminovinylcarbonyl Compounds” (Oxidative Medicine and Cellular Longevity, 2020)
